Reference: patent publication US5164295A, “Method for identifying amyloid protein-extracellular matrix protein affinity altering compounds” (The Upjohn Company, priority 1991, dated 1992)

Key:
[1] = target: T1, HSPG binding to AAP695 /s (Homo sapiens, UniProt P05067); experiment: Effect of test compounds on intact HSPG binding to immobilized AAP695 /s (ELISA); conditions: for HSPG binding, % of control: AAP695
T1 construct: maintained the entire extracellular portion of the AAP; made in house; host or cells: insect cells (recombinant baculovirus)
Protocol: (§1) The assay comprised immobilizing AAP695 /s which was then exposed to free HSPG in the absence or presence of test compounds. Other aspects of the assay included exposing free HSPG to either immobilized AAP751 /s, or AAP770 /s, each in the absence or presence of test compounds. The assay was also performed with fibronectin as the immobilized protein in order to provide a positive control. In each case, a series of concentrations of HSPG and test compounds was used. Additionally, to determine whether or not the carbohydrate moiety of HSPG was involved in the binding to immobilized components, the carbohydrate moiety of HSPG was removed and assays were performed using the carbohydrate-free HSPG core protein. The test compounds used in experiments described here include heparin, dextran sulfate, chondroitin sulfate, dermatan sulfate, fibronectin, gelatin, bovine serum albumin (BSA), Ca^++ (CaCl2), Mg^++ (MgCl2), Mn^++ (MnCl2), Co^++ (Co(NO3)2), and Zn^++ (ZnCl2).
(§2) The assay used in studying the interaction between HSPG and protein ligands was an ELISA technique. Briefly, polystyrene micro-titer plates (Linbro, Flow Lab Inc.) were coated with a 100 μl solution, containing 1 μg/ml of the protein of interest (one of the three forms of AAP or fibronectin) in 20 mM NaHCO3 buffer pH 9.6. After incubation overnight at 4° C., the plates were rinsed with 0.15M NaCl, 20 mM Tris-Cl pH 7.5 (TBS). The plates were then incubated with 150 μl of 1% BSA in TBS for 2 hours at 37° C. to block the residual hydrophobic surface on the wells. After rinsing with TBS containing 0.05% (w/v) Tween 20 (TBS-Tween), 100 μl of various concentrations of HSPG in TBS-Tween were added. The plates were left overnight at 4° C., to permit maximum binding of HSPG to the coated proteins. The plates were then washed extensively and incubated for 2 hours at 37° C., with 100 μl of anti-HSPG diluted in TBS-Tween containing 0.1% BSA. The plates were washed again and incubated for another 2 hours with 100 μl of goat anti-rabbit-IgG conjugated with alkaline phosphatase (1:2000 dilution) in TBS-Tween containing BSA as above. Finally, after further washing, the bound antibodies were detected by adding an alkaline phosphatase substrate solution (100 μl) containing 2 mg/ml p-nitrophenyl phosphate, 0.1 mM ZnCl2, 1 mM MgCl2 and 100 mM glycine pH 10. The plates were left at room temperature for 15-120 minutes depending on the protein tested. The enzyme reaction was stopped by addition of 50 μl of 2M NaOH. The absorbance of the released p-nitrophenol was measured at 405 nm with a Titertek Multiscan/MCC 340 (Flow Lab. Ltd.). The amounts of HSPG bound were determined by the net OD405 after substracting the OD from the blank wells in which the HSPG incubation step was omitted. When the actual amounts of HSPG bound were to be calculated, a set of standards (0.05-50 ng/well) of HSPG in NaHCO3 buffer were pre-coated into wells on the same plates as the test proteins. The incubations proceeded as described above omitting the incubation of the HSPG solution with the HSPG standard coated wells. The actual amounts of HSPG bound to the test proteins were calculated from the OD405 standard curve produced by the HSPG standards using a Titersoft II E.J.A. software program (Flow Lab. Ltd.).
(§3) Heparin and dextran sulfate, respectively, were each used as test compounds to determine their effect on the HSPG binding to AAP forms and fibronectin. Various concentrations of heparin or dextran sulfate were added together with a constant amount of HSPG to wells coated with AAPs for fibronectin.

[2] = tested on: HSPG binding to fibronectin; experiment: Effect of test compounds on intact HSPG binding to immobilized fibronectin (ELISA); design: species or system bovine; conditions: for HSPG binding, % of control: fibronectin
HSPG binding to fibronectin, sequence (P07589 with tags, fused parts or gaps DEL1267-1357/DEL1723-1812 limits assumed): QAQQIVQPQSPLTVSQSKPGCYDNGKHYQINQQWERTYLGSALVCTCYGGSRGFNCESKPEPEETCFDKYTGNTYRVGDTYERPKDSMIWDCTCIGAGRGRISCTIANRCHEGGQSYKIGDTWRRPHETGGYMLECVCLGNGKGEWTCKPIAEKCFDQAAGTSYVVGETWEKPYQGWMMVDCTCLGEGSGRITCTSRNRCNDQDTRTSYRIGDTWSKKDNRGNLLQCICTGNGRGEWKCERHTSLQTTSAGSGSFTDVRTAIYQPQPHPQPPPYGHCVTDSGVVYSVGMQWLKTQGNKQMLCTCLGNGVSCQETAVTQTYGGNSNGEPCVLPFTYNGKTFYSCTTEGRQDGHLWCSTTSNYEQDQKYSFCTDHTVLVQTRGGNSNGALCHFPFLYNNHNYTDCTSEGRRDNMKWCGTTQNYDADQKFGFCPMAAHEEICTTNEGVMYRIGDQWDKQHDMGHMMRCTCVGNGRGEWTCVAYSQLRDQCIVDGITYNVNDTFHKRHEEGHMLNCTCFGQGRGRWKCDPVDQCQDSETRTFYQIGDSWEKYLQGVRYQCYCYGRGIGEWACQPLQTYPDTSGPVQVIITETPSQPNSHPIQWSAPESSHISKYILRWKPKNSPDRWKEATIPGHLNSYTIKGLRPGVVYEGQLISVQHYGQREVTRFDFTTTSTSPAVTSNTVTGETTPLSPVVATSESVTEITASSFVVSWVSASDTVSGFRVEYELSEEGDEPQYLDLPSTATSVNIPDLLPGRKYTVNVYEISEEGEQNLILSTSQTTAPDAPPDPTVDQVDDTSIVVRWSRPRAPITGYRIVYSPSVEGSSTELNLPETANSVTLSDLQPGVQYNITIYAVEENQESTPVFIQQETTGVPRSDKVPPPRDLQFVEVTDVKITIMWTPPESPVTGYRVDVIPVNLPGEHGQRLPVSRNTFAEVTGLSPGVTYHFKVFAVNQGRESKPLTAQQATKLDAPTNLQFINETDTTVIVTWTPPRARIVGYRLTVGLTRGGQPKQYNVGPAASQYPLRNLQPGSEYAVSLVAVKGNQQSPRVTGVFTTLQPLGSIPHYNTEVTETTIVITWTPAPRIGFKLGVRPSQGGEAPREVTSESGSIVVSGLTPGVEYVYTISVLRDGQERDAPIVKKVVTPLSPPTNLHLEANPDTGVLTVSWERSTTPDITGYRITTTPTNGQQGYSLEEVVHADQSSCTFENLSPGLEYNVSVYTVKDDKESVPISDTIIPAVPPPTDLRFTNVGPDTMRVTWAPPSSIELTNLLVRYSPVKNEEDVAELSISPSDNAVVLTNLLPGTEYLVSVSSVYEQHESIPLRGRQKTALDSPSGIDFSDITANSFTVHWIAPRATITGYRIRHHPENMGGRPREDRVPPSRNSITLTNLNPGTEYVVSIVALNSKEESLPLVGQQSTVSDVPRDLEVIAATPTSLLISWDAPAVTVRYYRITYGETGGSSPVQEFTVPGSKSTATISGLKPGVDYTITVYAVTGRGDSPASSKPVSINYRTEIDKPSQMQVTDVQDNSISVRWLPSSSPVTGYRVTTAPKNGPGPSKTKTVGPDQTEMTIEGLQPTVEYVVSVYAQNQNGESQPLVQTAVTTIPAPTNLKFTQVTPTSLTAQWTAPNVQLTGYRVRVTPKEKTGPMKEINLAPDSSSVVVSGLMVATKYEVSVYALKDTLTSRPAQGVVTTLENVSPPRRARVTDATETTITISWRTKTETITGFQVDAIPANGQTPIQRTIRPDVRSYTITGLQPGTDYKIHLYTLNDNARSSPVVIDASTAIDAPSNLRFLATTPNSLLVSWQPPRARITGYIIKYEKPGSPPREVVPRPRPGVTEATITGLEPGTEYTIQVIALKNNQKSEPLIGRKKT
Protocol: as §1
Fibronectin (from bovine plasma), heparin (grade II from porcine intestinal mucosa, average molecular weight=[…]), heparan sulfate, chondroitin sulfate, dextran sulfate, BSA, and alkaline phosphatase substrate were obtained from Sigma, St. Louis, Mo. Alkaline phosphatase conjugated goat anti-rabbit IgG was obtained from Boehringer-Manneheim, and heparitinase from ICN Biochemicals.
as §2, §3

[3] = target: HSPG core protein binding to AAP695 /s; experiment: Effect of heparin on HSPG core protein binding to immobilized AAP695 /s (ELISA); conditions: heparin 400 μg/ml
Protocol: The assay used in studying the interaction between HSPG and protein ligands was an ELISA technique. Briefly, polystyrene micro-titer plates (Linbro, Flow Lab Inc.) were coated with a 100 μl solution, containing 1 μg/ml of the protein of interest (one of the three forms of AAP or fibronectin) in 20 mM NaHCO3 buffer pH 9.6. After incubation overnight at 4° C., the plates were rinsed with 0.15M NaCl, 20 mM Tris-Cl pH 7.5 (TBS). The plates were then incubated with 150 μl of 1% BSA in TBS for 2 hours at 37° C. to block the residual hydrophobic surface on the wells. After rinsing with TBS containing 0.05% (w/v) Tween 20 (TBS-Tween), 100 μl of various concentrations of HSPG in TBS-Tween were added. […] Finally, after further washing, the bound antibodies were detected by adding an alkaline phosphatase substrate solution (100 μl) containing 2 mg/ml p-nitrophenyl phosphate, 0.1 mM ZnCl2, 1 mM MgCl2 and 100 mM glycine pH 10. […] The absorbance of the released p-nitrophenol was measured at 405 nm with a Titertek Multiscan/MCC 340 (Flow Lab. Ltd.). The amounts of HSPG bound were determined by the net OD405 after substracting the OD from the blank wells in which the HSPG incubation step was omitted. When the actual amounts of HSPG bound were to be calculated, a set of standards (0.05-50 ng/well) of HSPG in NaHCO3 buffer were pre-coated into wells on the same plates as the test proteins. […]

[4] = target: T2, HSPG binding to AAP751 /s (Homo sapiens, UniProt P05067); experiment: Effect of test compounds on intact HSPG binding to immobilized AAP751 /s (ELISA); conditions: for HSPG binding, % of control: AAP751
T2 construct: maintained the entire extracellular portion of the AAP; made in house; host or cells: insect cells (recombinant baculovirus)
Protocol: as §1, §2, §3

[5] = test compound 500 μg/ml (Table II)

mode of inhibition of HSPG binding to AAP695 /s [1]: probably competitive
Activity: binding of intact HSPG, percentage ± SD of control ([1]; AAP695 /S, addition 500 μg/ml, HSPG 2 μg/ml): 10.2 ± 5.2%
HSPG binding, % of control ([1]; test compound 31.2 μg/ml): 29%
HSPG binding, % of control ([1]; test compound 62.5 μg/ml): 26%
HSPG binding, % of control ([1]; test compound 125 μg/ml): 16%
HSPG binding, % of control ([1]; test compound 250 μg/ml): 10%
HSPG binding, % of control [1, 5]: 7%
HSPG binding, % of control ([1]; test compound 1000 μg/ml): 3%
HSPG binding, % of control ([1]; test compound 2000 μg/ml): 2%
HSPG binding, % of control ([1]; test compound 4000 μg/ml): 1%
Ki ([1]; calculated from Kdapp = Kdcon (1+[I]/Ki), heparin 400 μg/ml, AAP695 /s): ~5.5 µM
factor by which HSPG affinity for AAP-695/s is reduced ([1]; heparin 400 μg/ml): 5-10
increase of Kd of intact HSPG for AAP695 /s in presence of heparin ([1]; heparin 400 μg/ml): approximately four-fold
inhibition of HSPG binding to AAP695 /s ([1]; test compound 62.5 μg/ml): 75%
mode of inhibition of HSPG binding to fibronectin [2]: noncompetitive
Activity: binding of intact HSPG, percentage ± SD of control ([2]; Fibronectin, addition 500 μg/ml, HSPG 2 μg/ml): 71.7 ± 4.9%
HSPG binding, % of control ([2]; test compound 31.2 μg/ml): 93%
HSPG binding, % of control ([2]; test compound 62.5 μg/ml): 91%
HSPG binding, % of control ([2]; test compound 125 μg/ml): 73%
HSPG binding, % of control ([2]; test compound 250 μg/ml): 85%
HSPG binding, % of control [2, 5]: 79%
HSPG binding, % of control ([2]; test compound 1000 μg/ml): 79%
HSPG binding, % of control ([2]; test compound 2000 μg/ml): 77%
HSPG binding, % of control ([2]; test compound 4000 μg/ml): 74%
Ki ([3]; calculated from Kdapp = Kdcon (1+[I]/Ki), AAP695 /s): ~1.6 µM
increase of Kd of HSPG core protein for AAP695 /s in presence of heparin [3]: approximately ten-fold
mode of inhibition of HSPG binding to AAP751 /s [4]: noncompetitive
Activity: binding of intact HSPG, percentage ± SD of control ([4]; AAP751 /S, addition 500 μg/ml, HSPG 2 μg/ml): 69 ± 12%
HSPG binding, % of control ([4]; test compound 31.2 μg/ml): 89%
HSPG binding, % of control ([4]; test compound 62.5 μg/ml): 75%
HSPG binding, % of control ([4]; test compound 125 μg/ml): 84%
HSPG binding, % of control ([4]; test compound 250 μg/ml): 82%
HSPG binding, % of control [4, 5]: 54%
HSPG binding, % of control ([4]; test compound 1000 μg/ml): 60%
HSPG binding, % of control ([4]; test compound 2000 μg/ml): 53%
HSPG binding, % of control ([4]; test compound 4000 μg/ml): 58%
effect of heparin on Kd of HSPG when using AAP751 /s ([4]; heparin 400 μg/ml, intact HSPG or core protein): No such effect
Substance: heparin
